Test results reported in patent publication US20240218073A1, “IMMUNOMODULATORY ANTI-CD73 ANTIBODIES AND USES THEREOF” (Corvus Pharmaceuticals, Inc., priority 2019, published 2024).

What was measured:
[1] = test system: circulating CD73^POS B cells; experiment: Phase 1 trial in cancer patients: peripheral blood immunophenotyping by flow cytometry; type: in vivo, human; conditions: ciforadenant monotherapy
cellular CD73 = target: T1, cellular CD73 (Homo sapiens, UniProt P21589); experiment: CD73 catalytic activity on MDA-MB-231 cells (phosphate released from AMP); conditions: 250 μM AMP, baseline from CRISPR CD73 knockout cells and 1 mM APCP
T1 sequence (P21589 27-549): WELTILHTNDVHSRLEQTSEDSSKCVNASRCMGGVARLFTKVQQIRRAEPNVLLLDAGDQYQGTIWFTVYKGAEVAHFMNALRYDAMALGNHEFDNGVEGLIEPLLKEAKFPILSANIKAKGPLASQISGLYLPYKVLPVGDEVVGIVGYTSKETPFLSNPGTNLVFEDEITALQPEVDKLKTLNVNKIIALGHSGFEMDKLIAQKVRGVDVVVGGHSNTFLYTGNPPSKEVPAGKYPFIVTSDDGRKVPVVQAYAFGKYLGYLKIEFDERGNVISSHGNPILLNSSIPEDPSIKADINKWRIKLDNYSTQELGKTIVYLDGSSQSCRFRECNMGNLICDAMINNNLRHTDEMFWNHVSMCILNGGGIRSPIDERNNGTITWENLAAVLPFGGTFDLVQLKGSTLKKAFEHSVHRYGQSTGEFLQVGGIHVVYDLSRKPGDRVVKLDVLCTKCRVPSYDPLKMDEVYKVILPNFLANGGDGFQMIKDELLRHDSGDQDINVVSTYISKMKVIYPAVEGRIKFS

B lymphocytes = experiment: B cell activation and maturation markers by flow cytometry in vitro; type: cell-based, human
Description: FIG. 6 are bar graphs showing CPI-006 directly activates B lymphocytes. Purified B cells were incubated overnight with 10 μg/mL human IgG1 isotype control or CPI-006 or anti-IgM microbeads, a positive control for BCR stimulation. Expression of activation markers CD69, CD83, CD86, CD25 or MHC-II was measured by flow cytometry. Mean fluorescence intensity (MFI) was determined for each activation marker and was normalized to the untreated condition for each donor. The figure legend from top to bottom is representative of each group of four bars from left to right. (N=3-5 donors).
FIG. 7 illustrates expression of CD69 on B cells (CD19+CD3−) as measured by flow cytometry and reported by MFI. Human PBMCs were incubated overnight with 10 μg/mL CPI-006 with or without NECA over a range of concentrations or 10 μM APCP. Expression of CD69 on B cells (CD19+CD3−) was measured by flow cytometry and MFI is reported. Error bars represent mean±SD. *p<0.05, **p<0.01 as determined by t-test.
Human B cells were stimulated in vitro with CPI-006 or CPX-016 (1 ug/ml) or an isotype control for 3 days. IgD and CD27 expression were evaluated by flow cytometry. The mean fluorescence intensity (MFI) of each marker was determined in FlowJo and normalized to CPX-016. N=3 donors shown. For each group of two bars, left bar represents treatment with […] and right bar represents treatment with CPX-006.
FIG. 13A: Purified B cells from 3-5 healthy donors were incubated overnight with human IgG1 isotype control or CPI-006 (10 μg/mL) or anti-IgM microbeads, a positive control for BCR stimulation. Expression of activation markers CD69, CD83, CD86, or MHC-II was measured by flow cytometry. […] Mean fluorescence intensity (MFI) was determined for each marker and was normalized to the untreated or isotype control for each donor. […] Expression of CD69 (MFI) was measured by flow cytometry. […] CD69 and CD73 were measured on B cells by flow cytometry. […] Expression of CD69 on B cells (CD19^POSCD3^NEG) was measured by flow cytometry. […]

T cells = experiment: T cell proliferation of anti-CD3/anti-CD28 activated PBMCs in the presence of AMP; type: cell-based, human; conditions: 500 nM antibody, 13 donors
Description: FIG. 12A: CD73 catalytic activity was measured with MDA-MB-231 cells or MDA-MB-231 CD73 CRISPR cells in the presence of CPI-006, oleclumab, or 1 mM APCP by adding 250 μM AMP and measuring phosphate levels in the cell culture supernatant. FIG. 12B: Human PBMCs were incubated with AMP in the presence of CPI-006, oleclumab, or isotype control antibody at the saturating concentration of 300 nM. After 4 hours of incubation, the AMP remaining in the supernatant was quantified using the CellTiterGlo assay as described in the Methods. Percentage of inhibition was plotted. Data represent 9 individual donors and error bars represent mean±SD. ****p<0.0001 as determined by t-test. FIG. 12C: Human PBMCs were activated with anti-CD3/anti-CD28 in the presence of AMP and a range of doses of CPI-006, oleclumab, or isotype control antibody. T cell proliferation was assessed by flow cytometry. T cell proliferation for 13 donors treated with 500 nM CPI-006 or oleclumab or 890 nM isotype control. Error bars represent mean±SD. *p<0.05, ***p<0.001, and ****p<0.0001 as determined by t-test. […] After 4 days in culture, IFNg levels in the supernatant were measured by AlphaLISA (Perkin Elmer). […] Error bars represent mean±SD. *p<0.05 and **p<0.01 as determined by t-test. […]

[2] = target: T2, CD73 expressed on primary human peripheral blood mononuclear cells (Homo sapiens, UniProt P21589); experiment: CD73 enzymatic activity on primary human PBMCs (AMP remaining, CellTiterGlo); conditions: 300 nM antibody, 4 hours incubation with AMP, 9 donors
T2 sequence (P21589 27-549): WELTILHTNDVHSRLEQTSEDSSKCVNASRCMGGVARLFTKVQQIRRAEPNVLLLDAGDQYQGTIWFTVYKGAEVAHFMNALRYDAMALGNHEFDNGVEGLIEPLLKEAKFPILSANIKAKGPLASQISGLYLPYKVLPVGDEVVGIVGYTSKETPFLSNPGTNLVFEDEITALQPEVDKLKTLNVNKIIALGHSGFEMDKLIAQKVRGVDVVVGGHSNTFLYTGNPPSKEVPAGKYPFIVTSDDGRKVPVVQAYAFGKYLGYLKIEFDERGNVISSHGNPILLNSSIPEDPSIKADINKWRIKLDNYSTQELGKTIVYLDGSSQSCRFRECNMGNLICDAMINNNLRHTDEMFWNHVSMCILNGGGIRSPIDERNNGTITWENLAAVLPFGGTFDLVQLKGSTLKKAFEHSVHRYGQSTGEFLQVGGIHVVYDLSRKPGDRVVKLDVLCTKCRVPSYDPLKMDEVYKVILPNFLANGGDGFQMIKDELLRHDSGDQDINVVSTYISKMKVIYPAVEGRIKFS

human CD73 = target: T3, human CD73 (human, UniProt P21589 27-549); experiment: bio-layer interferometry (Octet HTX, 25 C; antibody on anti-human IgG Fc capture sensors, antigen in solution from 300 nM, 1:1 model)
T3 construct: also called CD73 antigen; 5'-nucleotidase
T3 sequence (looked up): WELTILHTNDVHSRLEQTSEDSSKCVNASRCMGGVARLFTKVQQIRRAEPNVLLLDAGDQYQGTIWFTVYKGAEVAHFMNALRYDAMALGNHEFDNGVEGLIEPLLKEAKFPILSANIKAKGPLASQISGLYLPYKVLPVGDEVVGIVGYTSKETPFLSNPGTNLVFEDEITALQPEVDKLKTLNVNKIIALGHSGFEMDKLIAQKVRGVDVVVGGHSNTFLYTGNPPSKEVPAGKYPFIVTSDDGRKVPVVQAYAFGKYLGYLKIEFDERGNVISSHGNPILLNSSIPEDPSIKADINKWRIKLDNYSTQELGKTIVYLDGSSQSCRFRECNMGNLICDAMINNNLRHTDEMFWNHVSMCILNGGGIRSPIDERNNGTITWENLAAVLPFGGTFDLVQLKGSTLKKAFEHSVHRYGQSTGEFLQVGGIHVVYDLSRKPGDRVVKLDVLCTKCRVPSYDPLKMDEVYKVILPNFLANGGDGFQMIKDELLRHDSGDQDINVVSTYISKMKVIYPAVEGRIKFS

Cc1ccc(-c2nc(N)nc3c2nnn3Cc2cccc(CO[C@H]3CCOC3)n2)o1 [ciforadenant]
B cell numbers or immunophenotype [1]: no changes in B cell numbers or immunophenotype

oleclumab: another anti-CD73 antibody that binds a non-overlapping epitope; expressed as human lambda/IgG1-TM antibody
CD73 activity (free phosphate levels generated upon conversion of AMP to adenosine) (cellular CD73): only partially reduced CD73 activity | B cell activation (CD69 expression) by other anti-CD73 antibodies (B lymphocytes; antibodies that do not cross-block CPI-006): fail to induce activation | T cell proliferation (T cells): restored T cell proliferation in a subset of donors but did not reach the magnitude of the CPI-006 response | enzymatic activity of CD73 on PBMCs [2]: partial effect on enzymatic activity

CCNC(=O)[C@H]1O[C@@H](n2cnc3c(N)ncnc32)[C@H](O)[C@@H]1O [NECA, 5′-(N-ethylcarboxamido)adenosine, reference compound]
effect on induction of activation markers by CPI-006 (B lymphocytes; human PBMCs, CPI-006 10 μg/mL overnight, NECA over a range of concentrations): did not block the induction of activation markers by CPI-006

B1: CPI-006 (antibody, human IgG1, kappa, N297Q, V domains shown)
VH: QVQLVQSGAEVEKPGASVKVSCKASGYTFTSYWITWVRQAPGQGLEWMGDIYPGSGNTNYNEKFKTRVTITADKSTSTAYMELSSLRSEDTAVYYCAKEGGLTTEDYALDYWGQGTLVTVSS
VL: EIVLTQSPATLSLSPGERATLSCRASKNVSTSGYSYMHWYQQKPGQAPRLLIYLASNLESGIPPRFSGSGYGTDFTLTINNIESEDAAYYFCQHSRELPFTFGQGTKVEIKR
Kd (human CD73): 0.2 nM

B2: CPI-006 immunoglobulin Fab fragments: Fab fragments of CPI-006 prepared using the Pierce Fab Preparation kit (antibody, chains of the INN, looked up, V domains shown)
VH: QVQLVQSGAEVEKPGASVKVSCKASGYTFTSYWITWVRQAPGQGLEWMGDIYPGSGNTNYNEKFKTRVTITADKSTSTAYMELSSLRSEDTAVYYCAKEGGLTTEDYALDYWGQGTLVTVSS
VL: EIVLTQSPATLSLSPGERATLSCRASKNVSTSGYSYMHWYQQKPGQAPRLLIYLASNLESGIPPRFSGSGYGTDFTLTINNIESEDAAYYFCQHSRELPFTFGQGTKVEIK
modifications: Fab
notes: Fab fragments of CPI-006 prepared using the Pierce Fab Preparation kit
expression levels of CD69 with Fab fragments (B lymphocytes; purified B cells, overnight, equimolar to 10 μg/mL CPI-006): minimal effect on expression levels of CD69
